Columns and labels:
[1] = tested on: Medicago sativa (alfalfa) seeds; experiment: Alfalfa germination test
Description: (§1) Independent 60 seed to 800 seed germination tests were conducted following standard seed testing protocols. Briefly, the seeds were placed on filter paper wettened with the active ingredient solution or nanoparticle suspension under investigation and germinated for 5-10 days. The infection of seeds with fungi and bacteria, and the germination rates were determined by counting the infested and germinated seeds, respectively. The germination speed was assessed by counting all fully emerged cotyledons. Blanks (water only) and dissolved silicon control (orthosilicic acid solution) were run in parallel to all experiments in 3-8 replicates. As a positive control, a solution of the commercially available fungicide tebuconazole was run in parallel. The SiO2-NP exposed plants were embedded in low viscosity epoxy resin for transmission electron microscopy imaging.

fungi and bacteria = experiment: Alfalfa germination test: infection of seeds; type: in vivo, Medicago sativa; conditions: positive control
Description: as §1

Row | Molecule | cotyledon emergence ([1]; 100 ppm) | germination ([1]; 100 ppm) | adverse effects on germinating seeds ([1]; 4000 ppm) | toxicity to the seed ([1]; same or comparable concentrations) | effect on fungi (fungi and bacteria) | overall effect on fungal infection, cotyledon emergence, seed vigor and biomass ([1]; germination and soil growth tests)
1 | CC(C)(C)C(O)(CCc1ccc(Cl)cc1)Cn1cncn1 (stereo not drawn) [tebuconazole] | detrimental effects | detrimental effects | some adverse effects | exhibited toxicity to the seeds | killing all fungi | 
2 | orthosilicic acid |  |  |  |  |  | performed equally or worse compared to the nanoparticles

Reference: US12433292B2, “Method of production of controlled release silica nanoparticles for plant growth and/or defense enhancement” (ADOLPHE MERKLE INSTITUTE, UNIVERSITY OF FRIBOURG, priority 2019, dated 2025)
